Test results taken from patent publication US11607458B2 (Georgia State University Research Foundation, Inc, priority 2017, dated 2023).

Tests used:
[1] = HPLC studies of reaction kinetics of tetrazine prodrugs with cyclooctyne alkynes (Kobs, second-order rate constant k2); format: physicochemical; details: for Kobs: prodrug 25 μM
Experimental: Stock solution preparation. Each of the tetrazine prodrugs (compounds 1b, 1c, and 1d) was dissolved in DMSO to afford a 500-μM stock solution. Each of the alkynes (compounds 2a, 2b, 2c, and 2d) was dissolved in DMSO to afford a 50-mM stock solution. Doxorubicin (Dox) and dansylamino compound (DA) 1.1b were each dissolved in DMSO to afford 1-mM stock solutions.
(§1) HPLC method A.: mobile phase A (10 mM NaH2PO4 in water, pH=5.0) and mobile phase B (ACN), flow rate: 1 mL/min, running time: 30 min, the gradient elution method: 25% B from 0 to 6 min, 25% to 50% B from 6 to 8 min, 50% B from 8 to 15 min, 50% to 99% B from 15 to 20 min, 99% B from 20 to 25 min, 99% to 25% B from 25 to 30 min. Detection wavelength: 256 nm. Column: Waters C18 3.5 μM, 4.6×100 mm. Injection volume: 20 μL.
as §1, with “method B:” for “method A.:”, “method: 30%” for “method: 25%”, “min, 30%” for “min, 25%”, “25 min.” for “25 min,”, “to 30%” for “to 25%”, “Detection wavelength 1: 256, detection wavelength 2: 337” for “Detection wavelength: 256”
General procedures HPLC studies of reaction kinetics. To three 20-ml vials with 9 mL PBS were added a solution of tetrazine prodrug (500 μL, 500 μM). 350 μL, 300 μL and 250 μL DMSO were added to vial respectively, and then 150 μL, 200 μL and 250 μL of the alkyne solution (50 mM in DMSO) were added to the vials to afford final concentrations of alkyne 0.75 mM, 1 mM and 1.25 mM in PBS (10% DMSO, 25 μM prodrug) respectively. The reaction was stirred at r.t or 37° C. respectively. Every 30 min about 500 μL reaction mixtures were taken out and 20 μL of them were injected into the HPLC by the autosampler; the rest of them were poured back to the reaction mixture. (Note: In the cases of prodrugs 1d or 1b reacting with alkyne 2d at 37° C., the final concentrations of 2d in the kinetic studies were 250 μM, 300 μM and 350 μM).
Determination of second-order rate constants. The reaction rate constant, kobs, was calculated for each concentration of the alkyne by fitting the prodrug areas versus time using eq. 1: Y=A exp(−kobst) eq. 1 where Y is the prodrug area, and t is time. The pseudo-first-order rate constant, kobs, was then plotted against the concentration of alkyne to yield the second-order rate constant using eq 2: kobs=k2[Alkyne] eq. 2 where k2 is the second-order rate constant.

[2] = Determination of the lactonization rate constants (k1) by HPLC; format: physicochemical; details: for Lactonization rate constant k1: alkyne 2b 5 mM, r.t., PBS (15% DMSO)
Experimental: General procedure for the determination of the lactonization rate constants. To a 9 mL PBS in a 20-mL vial was added a solution of the respective tetrazine prodrug (500 μL, 500 μM). Then 1 mL of the respective alkyne (50 mM in DMSO) was added to afford a final concentration of 5 mM in PBS (15% DMSO). The reaction was stirred at r.t. Every 30 min about 500 μL the reaction mixture was taken out and 20 μL of them was injected into the HPLC by an autosampler; the rest of them was poured back to the reaction mixture. The reaction rate constant, k1, was determined by fitting the area in HPLC chromatogram of the intermediate versus time using eq. 3: Y=A exp(−k1t) eq. 3 where Y is the intermediate areas, and t is the time.

For `COc1cccc2c1C(=O)c1c(O)c3c(c(O)c1C2=O)CC(O)(C(=O)CO)CC3OC1CC(NC(=O)c2nnc(-c3ccc(OCc4cn(CCCCCCCCC[P+](c5ccccc5)(c5ccccc5)c5ccccc5)nn4)cc3)nn2)C(O)C(C)O1` (stereo not drawn) [1c], the Kobs ([1]; 37° C., alkyne 2b 0.75 mM, Expt. 1) was 0.711 h⁻¹, the Kobs ([1]; 37° C., alkyne 2b 0.75 mM, Expt. 2) was 0.701 h⁻¹ and the Kobs ([1]; 37° C., alkyne 2b 0.75 mM, Expt. 3) was 0.714 h⁻¹. For the same compound, the Kobs ([1]; 37° C., alkyne 2b 1.00 mM, Expt. 1) was 0.921 h⁻¹, the Kobs ([1]; 37° C., alkyne 2b 1.00 mM, Expt. 2) was 0.902 h⁻¹ and the Kobs ([1]; 37° C., alkyne 2b 1.00 mM, Expt. 3) was 0.871 h⁻¹. It also gave a Kobs ([1]; 37° C., alkyne 2b 1.25 mM, Expt. 1) of 1.21 h⁻¹, a Kobs ([1]; 37° C., alkyne 2b 1.25 mM, Expt. 2) of 1.15 h⁻¹ and a Kobs ([1]; 37° C., alkyne 2b 1.25 mM, Expt. 3) of 1.09 h⁻¹. For the same compound, the “k2 at 37° C. (second order rate constant)” value ([1]; alkyne 2b, 37° C., PBS containing 10% DMSO, n = 3) was 0.25 ± 0.05 M⁻¹ s⁻¹, the “k2 at r.t (second order rate constant)” value ([1]; alkyne 2b, r.t, PBS containing 10% DMSO, n = 3) was 0.091 ± 0.013 M⁻¹ s⁻¹ and the Kobs ([1]; r.t, alkyne 2b 0.75 mM, Expt. 1) was 0.296 h⁻¹. For the same compound, the Kobs ([1]; r.t, alkyne 2b 0.75 mM, Expt. 2) was 0.305 h⁻¹, the Kobs ([1]; r.t, alkyne 2b 0.75 mM, Expt. 3) was 0.291 h⁻¹ and the Kobs ([1]; r.t, alkyne 2b 1.00 mM, Expt. 1) was 0.331 h⁻¹. For the same compound, the Kobs ([1]; r.t, alkyne 2b 1.00 mM, Expt. 2) was 0.356 h⁻¹, the Kobs ([1]; r.t, alkyne 2b 1.00 mM, Expt. 3) was 0.359 h⁻¹ and the Kobs ([1]; r.t, alkyne 2b 1.25 mM, Expt. 1) was 0.445 h⁻¹. The Kobs ([1]; r.t, alkyne 2b 1.25 mM, Expt. 2) was 0.465 h⁻¹, the Kobs ([1]; r.t, alkyne 2b 1.25 mM, Expt. 3) was 0.474 h⁻¹ and the “Lactonization rate constant k1” value ([2]; Exp 2) was 0.191 h⁻¹. For the same compound, the “Lactonization rate constant k1” value ([2]; Expt 1) was 0.225 h⁻¹, the “Lactonization rate constant k1” value ([2]; Expt. 3) was 0.265 h⁻¹ and the “k1 at r.t (lactonization)” value ([2]; alkyne 2b, r.t, n = 3) was 0.22 ± 0.05 h⁻¹.
